Measurements taken from ChEMBL document CHEMBL4190219, “Detection of a Toxic Methylated Derivative of Phomopsin A Produced by the Legume-Infesting Fungus Diaporthe toxica” (J Nat Prod, 2017).

Tests used:
HepG2 [1] = assay: Cytotoxicity against human HepG2 cells assessed as cell vitality at 0.4 uM after 72 hrs by trypan blue staining based assay (reference value: 1.1 +/- 0.5%); details: hepg2, 72 h
HepG2 [2] = assay: Cytotoxicity against human HepG2 cells assessed as cell vitality at 1.3 uM after 72 hrs by trypan blue staining based assay (reference value: 1.1 +/- 0.5%); details: hepg2, 72 h
HepG2 [3] = assay: Cytotoxicity against human HepG2 cells assessed as cell vitality after 72 hrs by trypan blue staining based assay; details: hepg2, 72 h
HepG2 [4] = assay: Cytotoxicity against human HepG2 cells assessed as cell viability after 72 hrs by WST1 assay; assay type: cell-based; details: for IC50: Homo sapiens, HepG2, 72 h; for Activity: human, hepg2, 72 h
[5] = Cytotoxicity against human HepG2 cells assessed as cell viability at 0.1 uM after 72 hrs by WST1 assay (reference value: 100%); assay type: cell-based; details: read-out: Activity
[6] = Cytotoxicity against human HepG2 cells assessed as cell viability at 2.5 uM after 72 hrs by WST1 assay (reference value: 100%); assay type: cell-based; details: read-out: Activity
[7] = Cytotoxicity against human HepG2 cells assessed as cell viability at 10.1 uM after 72 hrs by WST1 assay (reference value: 100%); assay type: cell-based; details: read-out: Activity
[8] = Cytotoxicity against human HepG2 cells assessed as cell viability at 5.1 uM after 72 hrs by WST1 assay (reference value: 100%); assay type: cell-based; details: read-out: Activity
[9] = Cytotoxicity against human HepG2 cells assessed as cell viability at 0.4 uM after 72 hrs by WST1 assay (reference value: 100%); assay type: cell-based; details: read-out: Activity
HepG2 [10] = assay: Cytotoxicity against human HepG2 cells assessed as cell vitality at 0.1 uM after 72 hrs by trypan blue staining based assay (reference value: 1.1 +/- 0.5%); details: hepg2, 72 h
[11] = Cytotoxicity against human HepG2 cells assessed as cell vitality at 10.1 uM after 72 hrs by trypan blue staining based assay (reference value: 1.1 +/- 0.5%); details: read-out: Activity
[12] = Cytotoxicity against human HepG2 cells assessed as cell vitality at 5.1 uM after 72 hrs by trypan blue staining based assay (reference value: 1.1 +/- 0.5%); details: read-out: Activity
[13] = Cytotoxicity against human HepG2 cells assessed as cell viability at 1.3 uM after 72 hrs by WST1 assay (reference value: 100%); assay type: cell-based; details: read-out: Activity
HepG2 [14] = assay: Cytotoxicity against human HepG2 cells assessed as cell vitality at 2.5 uM after 72 hrs by trypan blue staining based assay (reference value: 1.1 +/- 0.5%); details: hepg2, 72 h

SMILES	Activity (HepG2 [1])	Activity (HepG2 [2])	Activity (HepG2 [3])	IC50 (HepG2 [4])	Activity (HepG2 [4])	viability at 72 h, 0.1 µM [5]	viability at 72 h, 2.5 µM [6]	viability at 72 h, 10.1 µM [7]	viability at 72 h, 5.1 µM [8]	viability at 72 h, 0.4 µM [9]	Activity (HepG2 [10])	viability at 72 h, 10.1 µM [11]	viability at 72 h, 5.1 µM [12]	viability at 72 h, 1.3 µM [13]	Activity (HepG2 [14])
C=C(C)[C@@H]1NC(=O)[C@H](N(C)C)[C@H](O)c2cc(Cl)c(O)c(c2)O[C@](C)(CC)[C@@H](C(=O)N2CC=C[C@H]2C(=O)N/C(C(=O)N/C(=C/C(=O)O)C(=O)O)=C(\C)CC)NC1=O	0.9%	4.7%	Dose-dependent effect	6.1 µM	Dose-dependent effect	105%	61%	37%	46%	101%	0.9%	29.8%	18.4%	85%	7.7%
C=C(C)[C@@H]1NC(=O)[C@H](NC)[C@H](O)c2cc(Cl)c(O)c(c2)O[C@](C)(CC)[C@@H](C(=O)N2CC=C[C@H]2C(=O)N/C(C(=O)N/C(=C/C(=O)O)C(=O)O)=C(\C)CC)NC1=O	1.1%	1.6%	Dose-dependent effect	8.1 µM	Dose-dependent effect	106%	83%	48%	57%	105%	0.5%	17%	9%	99%	4.3%
